Series [1] can be described thus: Anticancer activity against human KATO III stomach cancer cell line assessed as cell growth inhibition measured after 3 days by CCK-8 assay. The class given is functional. Conditions: 72 h, time 3 day. In general terms: Tetrazolium assays rely on reduction of a dye to a coloured formazan, in cell work by metabolically active cells.
For series [2], the system named is SK-OV-3. Briefly: Anticancer activity against human SK-OV-3 cells assessed as cell growth inhibition measured after 3 days by CCK-8 assay. Conditions: SK-OV-3, 72 h, time 3 day. It counts as functional.
The subject of series [3] is K562. Briefly: Anticancer activity against human K562 cells assessed as cell growth inhibition measured after 3 days by CCK-8 assay. The class given is functional. As to conditions: K562, 72 h, time 3 day.
In series [4] the test system is PANC-1. The series can be described thus: Anticancer activity against human PANC-1 cells assessed as cell growth inhibition measured after 3 days by CCK-8 assay. The class given is functional. Conditions: PANC-1, 72 h, time 3 day.
Series [5] concerns Rattus norvegicus. The series can be described thus: Antiinflammatory activity in formalin induced Wistar rat paw oedema model assessed as inhibition of paw oedema administered up to 6 hrs by plethysmograph analysis. On the set-up: scale not given: the % may be the effect or the level left. The class given is functional, organism-based.
A short description of series [6]: Cytotoxicity against human WI-38 cells assessed as cell growth inhibition measured after 48 hrs by sulforhodamine B staining based analysis. The class given is toxicity.
The subject of series [7] is NCI-H460. Briefly: Anticancer activity against human NCI-H460 cells assessed as cell growth inhibition measured after 48 hrs by sulforhodamine B staining based analysis. It counts as functional. For orientation: Sulforhodamine B stains cellular protein and so reports cell mass.
In series [8] the test system is SF-268. Briefly: Anticancer activity against human SF-268 cells assessed as cell growth inhibition measured after 48 hrs by sulforhodamine B staining based analysis. The class given is functional.
The test system of series [9] is MCF7. The series can be described thus: Anticancer activity against human MCF7 cells assessed as cell growth inhibition measured after 48 hrs by sulforhodamine B staining based analysis. The class given is functional.
For series [10], the system named is Shigella dysenteriae. The series can be described thus: Antibacterial activity against Shigella dysenteriae ATCC 49345 assessed as bacterial growth inhibition at 50 ug/ml incubated for 24 hrs relative to control. It counts as functional. On the set-up: scale not given: the % may be the effect or the level left. Conditions: dose 50 µg/ml.
Series [11] relates to Salmonella typhi. Briefly: Antibacterial activity against Salmonella typhi ATCC 11778 assessed as bacterial growth inhibition at 50 ug/ml incubated for 24 hrs relative to control. It counts as functional, Salmonella enterica subsp. enterica serovar Typhi. On the set-up: scale not given: the % may be the effect or the level left. Conditions: dose 50 µg/ml.
Series [12] has as its system Pseudomonas aeruginosa. Briefly: Antibacterial activity against Pseudomonas aeruginosa assessed as zone of inhibition at 1000 ug/ml measured after 24 hrs by cup plate method. It counts as functional. Conditions: read-out: DIZ.
For series [13], the system named is Bacillus subtilis. The series can be described thus: Antibacterial activity against Bacillus subtilis assessed as zone of inhibition at 1000 ug/ml measured after 24 hrs by cup plate method. It counts as functional. As to conditions: read-out: DIZ.
Series [14] deals with Staphylococcus aureus. Briefly: Antibacterial activity against Staphylococcus aureus assessed as zone of inhibition at 1000 ug/ml measured after 24 hrs by cup plate method. It counts as functional. As to conditions: read-out: DIZ.
Series [15] deals with Aspergillus niger. The series can be described thus: Antifungal activity against Aspergillus niger assessed as zone of inhibition at 1000 ug/ml measured after 24 hrs by cup plate method. The class given is functional. As to conditions: read-out: DIZ.
Series [16] deals with Aspergillus terreus. Briefly: Antifungal activity against Aspergillus terreus assessed as zone of inhibition at 1000 ug/ml measured after 24 hrs by cup plate method. It counts as functional. As to conditions: read-out: DIZ.
In series [17] the test system is Escherichia coli. The series can be described thus: Antibacterial activity against Escherichia coli assessed as zone of inhibition at 1000 ug/ml measured after 24 hrs by cup plate method. The class given is functional. As to conditions: read-out: DIZ.
The test system of series [18] is Rattus norvegicus. The series can be described thus: Antiinflammatory activity in formalin induced fasted albino rat paw oedema model assessed as inhibition of paw oedema at 100 mg/kg, po measured after 4 hrs by plethysmograph analysis relative to control. On the set-up: scale not given: the % may be the effect or the level left. It counts as functional.
Series [19] concerns Aspergillus flavus. Briefly: Antifungal activity against Aspergillus flavus assessed as zone of inhibition at 1000 ug/ml measured after 24 hrs by cup plate method. It counts as functional. Conditions: read-out: DIZ.
Series [20] deals with Hepatitis C virus. Briefly: Antiviral activity against HCV GT-1b infected in human Huh-5-2 cells carrying HCV subgenomic replicons assessed as inhibition of viral replication by quantitative RT-PCR assay. It counts as functional, organism-based, Hepacivirus hominis. Conditions: subtype 1b. (In general: In antiviral work, replicon cells carry a viral genome segment that copies itself.)

Series [21] has as its target Carbonic anhydrase 2 (Homo sapiens, UniProt P00918). Briefly: Inhibition of human carbonic anhydrase-2 by stopped flow CO2 hydrase assay.
Series [22] addresses Carbonic anhydrase 1 (Homo sapiens, UniProt P00915). The series can be described thus: Inhibition of human carbonic anhydrase-1 by stopped flow CO2 hydrase assay.
The subject of series [23] is Rattus norvegicus. The series can be described thus: Antiinflammatory activity in carrageenan induced rat paw oedema model assessed as inhibition of paw oedema, ip pretreated with compound for 30 mins followed by carrageenan injection measured after 3 hrs relative to control. On the set-up: scale not given: the % may be the effect or the level left. It counts as functional. As to conditions: time 3.5 hrs.

Series [24] deals with Sprivivirus cyprinus. The series can be described thus: Antiviral activity against Carp sprivivirus infected Fathead minnow EPC cells assessed as assessed as suppression of virus-induced cytopathic effect incubated for 48 hrs by CCK-8 assay. The class given is functional, organism-based.
For series [25], the system named is CCRF-CEM. Briefly: Anticancer activity against human CEM/0 cells assessed as cell growth inhibition measured after 3 days by CCK-8 assay. It counts as functional, cell-based. As to conditions: 72 h.
The nature of series [26]: Anticancer activity against mouse L1210/0 cells assessed as cell growth inhibition measured after 3 days by CCK-8 assay. It counts as functional, cell-based. Conditions: L1210/0, 72 h.
Series [27] concerns MOLT-4. Briefly: Anticancer activity against human Molt4/C8 cells assessed as cell growth inhibition measured after 3 days by CCK-8 assay. It counts as functional, cell-based. Conditions: MOLT-4, 72 h.
Series [28] concerns HeLa. The series can be described thus: Anticancer activity against human HeLa cells assessed as cell growth inhibition by SRB method. The class given is functional.

The results in this text go back to ChEMBL document CHEMBL5126506, “Coumarin-benzimidazole hybrids: A review of developments in medicinal chemistry” (Eur J Med Chem, 2022).

Converted amounts (≈) assume the structure as drawn.

Chain of Carbonic anhydrase 1 (P00915 whole entry): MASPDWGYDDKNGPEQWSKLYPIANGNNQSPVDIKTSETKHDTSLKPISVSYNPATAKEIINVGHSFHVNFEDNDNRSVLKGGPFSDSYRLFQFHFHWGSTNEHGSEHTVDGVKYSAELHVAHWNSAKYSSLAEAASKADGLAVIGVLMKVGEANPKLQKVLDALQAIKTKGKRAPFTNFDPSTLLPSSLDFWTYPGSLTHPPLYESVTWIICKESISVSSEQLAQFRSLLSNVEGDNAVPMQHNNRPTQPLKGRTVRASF

As usually defined, the GI50 is the concentration giving 50% growth inhibition. Turning to `CCN(CC)c1ccc2cc(-c3nc4ccccc4n3C)c(=O)oc2c1`, the GI50 in series [1] came to 0.1 µM; in series [2] it was 0.07 µM; in series [3], 0.07 µM; in series [4], 0.1 µM.
In the case of `O=c1oc2ccc(Cl)cc2cc1-c1nc2ccccc2[nH]1`, in [5], the Activity came out at 46.75%.
Turning to `O=c1oc2ccccc2cc1-c1nc2ccccc2n1C(=S)Nc1ccccc1`, the GI50 at 48 h in [6] was determined as 28 µM. Also, the GI50 was determined as 0.05 µM in [7], 0.06 µM in [8] and 0.08 µM in series [9].
With `O=c1oc2ccc(Br)cc2cc1-c1nc2ccccc2[nH]1`, the Activity in [5] was determined as 45.45%.
Turning to `O=c1oc2ccccc2cc1CSc1nc2ccccc2[nH]1`, the Activity in [10] and in [11] was 100% in each case.
Take `Cc1c(/C=N/Nc2nc3ccccc3[nH]2)c(=O)oc2cc(O)ccc12`: the zone of inhibition at 1000 µg/mL in series [12], in series [13], in [14], in series [15], in series [16] and in series [17] was 13 mm each time. In addition, in series [19], the zone of inhibition at 1000 µg/mL is 13 mm. Also, in series [18], the Activity is 37%.
As for `Cc1ccc2nc(SCc3cc4ccccc4oc3=O)[nH]c2c1`, the Activity in series [10] and in [11] was 100% throughout.
The EC50 is the concentration that produces a half-maximal response. Take `CC(=O)OC[C@H]1O[C@@H](n2c(SCc3cc4cc(Br)ccc4oc3=O)nc3ccccc32)[C@H](OC(C)=O)[C@@H](OC(C)=O)[C@@H]1OC(C)=O`: the concentration for a half-maximal effect (EC50) in series [20] stood at 4.1 µM.
The term IC50 denotes the concentration that inhibits the measured activity by half. Consider `O=c1cc(Cn2c[n+](CCCCn3c[n+](Cc4cc(=O)oc5cc(O)ccc45)c4ccccc43)c3ccccc32)c2ccc(O)cc2o1`, for which the IC50 in [21] worked out at 94 µM; in [22], 81 µM.
Regarding `O=c1cc(Cc2nc3ccccc3[nH]2)c2ccccc2o1`, the Activity in series [23] turned out to be 45%.
Turning to `O=c1cc(Cn2c[n+](CCCCCn3c[n+](Cc4cc(=O)oc5cc(O)ccc45)c4ccccc43)c3ccccc32)c2ccc(O)cc2o1`, the 50% inhibitory concentration (IC50) in series [21] worked out at 89 µM; in series [22] it was 99 µM.
Taken in the same sequence, the figures for `O=c1cc(C[n+]2cn(Cc3ccc4ccccc4c3)c3ccccc32)c2ccc(O)c(O)c2o1` were 6.01 µM and 4.99 µM.
For `O=c1ccc2cc(OCCCn3cnc4ccccc43)ccc2o1`, the half-inhibitory concentration (IC50) in series [24] is 2.2 µg/mL (≈ 6.87 µM).
In the case of `O=c1oc2ccc(Cl)cc2cc1-c1nc2cc(Cl)ccc2[nH]1`, the values for the IC50 in [25], in series [26] and in [27] were 0.42 µg/mL (≈ 1.27 µM), 0.67 µg/mL (≈ 2.02 µM) and 0.44 µg/mL (≈ 1.33 µM), respectively.
Turning to `Cc1ccc(S(=O)(=O)n2c(-c3cc(=O)oc4ccc(C)cc34)nc3ccccc32)cc1`, the GI50 in [28] is 35 µg/mL (≈ 81.3 µM).
Consider `Cc1ccc2c(Cc3nc4ccccc4[nH]3)cc(=O)oc2c1`, for which, in series [23], the Activity is given as 45%.
As to `O=c1oc2ccccc2c2c(O)cn3c4ccccc4nc3c12`, in series [6], the concentration for 50% growth inhibition (GI50) at 48 h stood at 25.2 µM. Also, the GI50 in [7] turned out to be 30.8 µM; in [8] it was 26.1 µM; in [9], 24.1 µM.
Consider `Cc1cn2c3ccccc3nc2c2c(=O)oc3ccccc3c12`, for which, in series [6], the GI50 at 48 h was 68.2 µM. Also, the figures for the GI50 in series [7], in series [8] and in series [9] were 29.3 µM, 18.4 µM and 26.6 µM, respectively.
For `Cc1ccc2oc(=O)c(-c3nc4cc(Cl)ccc4[nH]3)cc2c1`, the figures for the concentration for half-maximal inhibition (IC50) in series [25], in [26] and in [27] were 1.9 µg/mL (≈ 6.11 µM), 5.1 µg/mL (≈ 16.4 µM) and 3.6 µg/mL (≈ 11.6 µM), respectively.
